Laboratory results published in US20220257541A1, “Lacosamide for the Treatment of ADD/ADHD” (priority 2019, published 2022).

Columns and labels:
Format in all cases: in vivo, human
[1] = tested on: patient with ADHD of the combined type; test: Case Study 1: lacosamide mono-therapy in a child with ADHD
Description: We present the case study of a child suffering from ADHD (with no comorbidity such as epilepsy or bipolar disorder). The child was treated with a lacosamide mono-therapy for several weeks based on the conventional treatment regime for lacosamide in children (for the treatment of epilepsy and/or bipolar disorder).
This case study describes the case of a person (“the patient”) with ADHD of the combined type. The patient had not previously been treated with any psychotropic drugs.
Before initiating the selected drug treatment, the patient underwent a full medical examination. In addition, reports from their school teachers as well as parents were collected.
Lacosamide was administered to the patient following the approved treatment regimen for lacosamide (Vimpat®) in epileptic children from 4 years of age.
The treatment was delivered twice a day and went on for >8 weeks.

[2] = tested on: children and adolescents with ADHD syndrome; test: Case Study 3: pedagogical evaluation (literary and mathematical skills)
Description: In order to evaluate the academic level of the patients and later evolution while being treated, we established indicators of literary and mathematical skills of the patients in line with the official assessment of the Ministry of Education of the Dominican Republic.
Academic evolution was assessed 90 days after initiating the treatment and at the end of the 6th month.
In order to measure academic evolution we used different parameters, which are: Spanish language, Reading, Writing, Comprehension of their own reading, Mathematics, Reasoning, argumentation capacities and Problem solving.
Independently, we established at each evaluation the attained level of alphabetisation and the acquisition of literary skills every patient had, as shown in Table 3.
We categorised the sample following the protocol of the local Ministry of Education's Evaluation tool, which will qualify students following the consideration of “Non Acquired”, “Towards Acquisition” or “Acquired” levels.

[3] = tested on: children and adolescents with ADHD syndrome; test: Case Study 3: Wisconsin Card Sorting Test (WCST) Reasoning; settings: second evaluation
Description: (§1) These tests offered an objective element that contributed to the establishment of the diagnosis.
(§2) Neuropsychological evaluation was repeated after six months on medication, at the end of the study. These evaluations were guided by trained neuropsychologists. Four different evaluations were conducted: Continuous Performance Test (CPT)1, STROOP-P test, Wisconsin Card sorting Test and the Non Verbal Intelligence Test.
The patients were assessed using the Wisconsin Card Sorting Test (WCST), which is used to measure higher-level cognitive processes, such as attention, perseverance, abstract thinking, and set shifting. It is particularly used in clinical fields to measure perseverative behaviours that refer to an individual's insistence on wrong behaviour.

[4] = tested on: children and adolescents with ADHD syndrome; test: Case Study 3: Test of Nonverbal Intelligence (TONI-2)
Description: as §1, §2
The patients were assessed using the Test of Nonverbal Intelligence (TONI-2), which is a language-free measure of abstract problem-solving ability.

[5] = tested on: children and adolescents with ADHD syndrome; test: Case Study 3: adverse reactions or side effects; settings: all 12 patients, 6 months
Text: To formalise the control of the treatment, a tool was designed, allowing to record all administrated doses to participants on a daily basis, including any occurrence or increase of adverse reactions or side effects.

[6] = end of the study, 17% prior to treatment

COC[C@@H](NC(C)=O)C(=O)NCc1ccccc1 [lacosamide, (2R)-2-(acetylamino)-N-benzyl-3-methoxypropanamide]
tolerance of the maximum dose administered ([1]; 250 mg/day): no signs of intolerance or inadequacy | tolerance of the dose ([1]; Day 8, 25 mg every 12 hours (50 mg/day)): tolerated the dose well | behaviour, sleeping activity, cognitive functionality ([1]; Day 8, 50 mg/day): No improvement | adverse reaction observed ([1]; Day 8, 50 mg/day, ceased after the first few days of treatment): sporadic headaches | quality of sleep or cognitive functionality ([1]; Day 15, 100 mg/day): No improvement | quality of sleep ([1]; Day 23, 75 mg every 12 hours (150 mg/day)): Improvement | cognitive functionality ([1]; Day 23, 150 mg/day): improved | lethargic napping in the afternoon ([1]; Day 32, after increase to 200 mg/day, symptoms subsequently became milder): initially replaced with agitation and hyperactivity | behaviour at school and home ([1]; Day 36, 200 mg/day): consistent improvement | aggression or irritability at home ([1]; Day 49, 125 mg every 12 hours (250 mg/day)): did not show any aggression or irritability | conversation in consultation ([1]; Day 49, 250 mg/day): able to sustain longer logical conversations, at least partially | dysphasia ([1]; Day 63, 250 mg/day): gradual improvement | hyperactivity ([1]; Day 63, 250 mg/day): no signs of hyperactivity | quality of sleep ([1]; Day 63, 250 mg/day): dramatically improved | dose after which sleep pattern and vegetative functions began to stabilize ([1]; administered as two separate 75 mg doses): 150 mg/day | dose at which higher functions were stabilized ([1]; administered as two separate 100 mg doses): ~200 mg/day | ADHD symptomatology ([1]; child, mono-therapy for several weeks): regressed dramatically | secondary reactions or effects ([1]; twice a day for >8 weeks): No secondary reactions or effects were observed | pedagogic evaluation, all tested competencies ([2]; 6-month treatment, tests pre-treatment, after 3 and 6 months): gradual progression | patients who completely acquired Reasoning and Solving Problems (Mathematics) ([2]; after 3 months of treatment, initial 25%): 50% | subjects at the intermediate level, Towards Acquisition ([2]; end of the study): 25% | change in patients who acquired the reading and writing skills ([2]; end of the study versus first evaluation): +60% | patients able to understand what they were reading (Comprehensive Reading) [2, 6]: 83% | patients who completely acquired the reading and writing skills [2, 6]: 75% | subjects at the non-acquired level (Read, Write, Comprehensive Reading) ([2]; end of the study, 83% prior to treatment): 0% | proportion of the sample Alphabetised (alphabetical level) ([2]; maintained until the end of the study, 25% at the beginning): 75% | patients in Severe Deterioration category, WCST Reasoning ([3]; 50% in the first evaluation): 25% | patients in the 3 highest categories, WCST Reasoning ([3]; from 41.7%): 58.3% | non-verbal reasoning: number of subjects who reached the high average level ([4]; after six months on medication): doubling | patients scoring high average in TONI-2 ([4]; end of the tested period, from 16.7%): 33.3% | patients scoring average in TONI-2 ([4]; end of the tested period, from 50%): 58.3% | side effects [5]: without substantial side effects
